One assay has as its system hematopoiesis. The conditions noted are these: mouse model of cyclophosphamide-induced neutropenia; WO 99/56753; cited from earlier work.
The next assay deals with DPP-4 (Homo sapiens, UniProt P27487). The conditions noted are these: cited from earlier work.
The target of assay [1] is T1, dipeptidyl peptidase-IV enzyme (DPP-4) (Homo sapiens, UniProt P27487).
T1 construct: soluble (transmembrane domain and cytoplasmic extension excluded) human protein; made in house; host or cells: baculovirus expression system (Bac-To-Bac, Gibco BRL)
Nature of the assay: Continuous fluorometric DPP-4 inhibition assay with substrate Gly-Pro-AMC. The assay is classed as biochemical. As to conditions: soluble human DPP-4, 50 μM Gly-Pro-AMC, pH 7.5, room temperature. The procedure: Inhibition constants are determined as follows. A continuous fluorometric assay is employed with the substrate Gly-Pro-AMC, which is cleaved by DPP-4 to release the fluorescent AMC leaving group. The kinetic parameters that describe this reaction are as follows: Km=50 μM; kcat=75 s^−1; kcat/Km=1.5×10^6 M^−1 s^−1. A typical reaction contains approximately 50 pM enzyme, 50 μM Gly-Pro-AMC, and buffer (100 mM HEPES, pH 7.5, 0.1 mg/ml BSA) in a total reaction volume of 100 μL. Liberation of AMC is monitored continuously in a 96-well plate fluorometer using an excitation wavelength of 360 nm and an emission wavelength of 460 nm. Under these conditions, approximately 0.8 μM AMC is produced in 30 minutes at 25 degrees C. The enzyme used in these studies was soluble (transmembrane domain and cytoplasmic extension excluded) human protein produced in a baculovirus expression system (Bac-To-Bac, Gibco BRL). […] To measure the dissociation constants for compounds, solutions of inhibitor in DMSO were added to reactions containing enzyme and substrate (final DMSO concentration is 1%). All experiments were conducted at room temperature using the standard reaction conditions described above. To determine the dissociation constants (Ki), reaction rates were fit by non-linear regression to the Michaelis-Menton equation for competitive inhibition. […]

Usually IC50 stands for the concentration needed to halve the response being measured. Low readings indicate greater potency in that assay, high ones weaker potency in that assay.

T1 sequence (P27487 29-766 limits assumed): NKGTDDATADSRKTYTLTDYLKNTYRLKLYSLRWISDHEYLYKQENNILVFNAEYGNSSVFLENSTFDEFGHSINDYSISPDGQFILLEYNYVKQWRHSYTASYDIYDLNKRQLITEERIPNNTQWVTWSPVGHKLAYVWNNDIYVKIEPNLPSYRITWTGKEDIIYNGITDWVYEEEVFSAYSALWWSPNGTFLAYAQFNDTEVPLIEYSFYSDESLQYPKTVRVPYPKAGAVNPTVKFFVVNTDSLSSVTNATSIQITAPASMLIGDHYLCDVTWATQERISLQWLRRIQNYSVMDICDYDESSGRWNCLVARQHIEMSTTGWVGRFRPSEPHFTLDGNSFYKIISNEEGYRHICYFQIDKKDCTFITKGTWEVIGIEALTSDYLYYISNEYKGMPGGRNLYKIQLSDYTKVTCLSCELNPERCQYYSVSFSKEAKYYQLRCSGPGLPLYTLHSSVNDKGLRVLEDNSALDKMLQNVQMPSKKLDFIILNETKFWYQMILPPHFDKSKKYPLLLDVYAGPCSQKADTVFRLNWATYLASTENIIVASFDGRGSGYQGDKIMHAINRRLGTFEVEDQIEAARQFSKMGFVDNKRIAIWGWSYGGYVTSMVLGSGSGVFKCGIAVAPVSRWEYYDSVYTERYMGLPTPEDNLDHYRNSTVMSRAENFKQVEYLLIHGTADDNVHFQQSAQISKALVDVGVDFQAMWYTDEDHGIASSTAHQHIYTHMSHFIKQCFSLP
DPP-4, sequence (P27487 whole entry, species assumed): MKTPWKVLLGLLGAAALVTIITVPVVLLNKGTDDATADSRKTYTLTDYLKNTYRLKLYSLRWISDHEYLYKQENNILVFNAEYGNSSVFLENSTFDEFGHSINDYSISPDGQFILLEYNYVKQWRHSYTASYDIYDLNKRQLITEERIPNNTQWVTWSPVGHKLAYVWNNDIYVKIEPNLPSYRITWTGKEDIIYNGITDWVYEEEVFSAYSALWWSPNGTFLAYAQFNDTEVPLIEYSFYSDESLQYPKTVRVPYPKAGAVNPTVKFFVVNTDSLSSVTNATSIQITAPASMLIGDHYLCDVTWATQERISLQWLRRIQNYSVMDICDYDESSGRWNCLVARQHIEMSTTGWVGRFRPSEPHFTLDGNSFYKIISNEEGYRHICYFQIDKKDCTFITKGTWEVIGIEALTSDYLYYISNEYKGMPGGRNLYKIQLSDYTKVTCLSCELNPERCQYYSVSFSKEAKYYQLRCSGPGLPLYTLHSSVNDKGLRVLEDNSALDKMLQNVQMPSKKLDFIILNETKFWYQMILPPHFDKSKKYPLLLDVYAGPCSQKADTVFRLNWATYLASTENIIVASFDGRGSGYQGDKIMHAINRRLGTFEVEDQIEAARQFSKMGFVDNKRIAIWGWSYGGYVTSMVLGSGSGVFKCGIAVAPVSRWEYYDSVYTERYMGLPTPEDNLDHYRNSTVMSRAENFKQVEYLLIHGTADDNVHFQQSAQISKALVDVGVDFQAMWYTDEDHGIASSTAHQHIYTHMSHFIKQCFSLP

On to `CC(C)[C@H](N)C(=O)N1CCC[C@H]1B(O)O` [Val-Boro-Pro], for which the hematopoiesis entry in the assay with hematopoiesis is recorded as “stimulated hematopoiesis”. As to `CC[C@H](C)[C@H](N)C(=O)N1CCC[C@H]1C(=O)N[C@H](C(=O)O)[C@@H](C)CC` [diprotin A], on DPP-4, the “degradation of GRF in plasma to GRF[3-44]” value is on record as “prevented”. In assay [1], `CS(=O)(=O)n1cc2c(n1)CN([C@H]1CO[C@H](c3sccc3F)[C@@H](N)C1)C2` (racemic) [Example 1] showed an IC50 of 90 nM. Still for that read-out and setting: the result for `CS(=O)(=O)n1cc2c(n1)CN([C@H]1CO[C@H](c3cc(F)cnc3F)[C@@H](N)C1)C2` [Example 2] reads 100 nM.

(Values after US9073930B2, “Dipeptidyl peptidase-IV inhibitors for the treatment or prevention of diabetes” (Merck Sharp & Dohme Corp., priority 2012, dated 2015).)
